Test results from the supplement of paper PMC10307832.

Columns and labels:
Experiment in all cases: relative viability (nuclei count vs DMSO), 5 days (fraction); higher = more cells survive
[1] = compound: CC1=CC=C(C=C1)C(=O)CN2C3=C(CCCC3)SC2=N [Pifithrin_alpha] + CC(=O)c1c(C)c2cnc(Nc3ccc(N4CCNCC4)cn3)nc2n(C2CCCC2)c1=O [Palbociclib] (partner 0.5 µM)
Method in brief: (§1)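 Cells from lung cancer lines were seeded into 1536-well plates and, one day later, dosed by pin tool. Treatments were either a single drug or a fixed dose of an anchor drug with five library-drug doses (not always all listed) in √10 steps. After 5 days, nuclei were stained in a one-step fixation (final 0.05% Triton X-100, 1% formaldehyde, 1 ug/ml Hoechst) and counted on 4× images, and relative viability is the treated-to-vehicle nuclei ratio, as the median of duplicate plates.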

Axitinib + Tozasertib = compound: CNC(=O)c1ccccc1Sc1ccc2c(/C=C/c3ccccn3)n[nH]c2c1 [Axitinib] + Cc1cc(Nc2cc(N3CCN(C)CC3)nc(Sc3ccc(NC(=O)C4CC4)cc3)n2)n[nH]1 [Tozasertib] (partner 0.1 µM)
Method in brief: as §1

Bemcentinib + Navitoclax = compound: Nc1nc(Nc2ccc3c(c2)CC[C@@H](N2CCCC2)CC3)nn1-c1cc2c(nn1)-c1ccccc1CCC2 [Bemcentinib] + CC1(C)CCC(c2ccc(Cl)cc2)=C(CN2CCN(c3ccc(C(=O)NS(=O)(=O)c4ccc(N[C@H](CCN5CCOCC5)CSc5ccccc5)c(S(=O)(=O)C(F)(F)F)c4)cc3)CC2)C1 [Navitoclax] (partner 0.5 µM)
Method in brief: as §1

Bemcentinib + AZD7762 = compound: Nc1nc(Nc2ccc3c(c2)CC[C@@H](N2CCCC2)CC3)nn1-c1cc2c(nn1)-c1ccccc1CCC2 [Bemcentinib] + NC(=O)Nc1cc(-c2cccc(F)c2)sc1C(=O)N[C@H]1CCCNC1 [AZD7762] (partner 0.2 µM)
Method in brief: as §1

Cell Line | relative viability ([1]; first compound 1 µM) | relative viability ([1]; first compound 3.162 µM) | relative viability ([1]; first compound 10 µM) | relative viability ([1]; first compound 31.62 µM) | relative viability ([1]; first compound 100 µM) | relative viability (Axitinib + Tozasertib; first compound 0.005 µM) | relative viability (Axitinib + Tozasertib; first compound 0.01581 µM) | relative viability (Axitinib + Tozasertib; first compound 0.05 µM) | relative viability (Axitinib + Tozasertib; first compound 0.1581 µM) | relative viability (Axitinib + Tozasertib; first compound 0.5 µM) | relative viability (Bemcentinib + Navitoclax; first compound 0.04 µM) | relative viability (Bemcentinib + Navitoclax; first compound 0.1265 µM) | relative viability (Bemcentinib + Navitoclax; first compound 0.4 µM) | relative viability (Bemcentinib + Navitoclax; first compound 1.265 µM) | relative viability (Bemcentinib + Navitoclax; first compound 4 µM) | relative viability (Bemcentinib + AZD7762; first compound 0.04 µM) | relative viability (Bemcentinib + AZD7762; first compound 0.1265 µM) | relative viability (Bemcentinib + AZD7762; first compound 0.4 µM) | relative viability (Bemcentinib + AZD7762; first compound 1.265 µM) | relative viability (Bemcentinib + AZD7762; first compound 4 µM)
HCC-827 | 0.49 | 0.444 | 0.479 | 0.43 | 0.471 | 0.443 | 0.417 | 0.424 | 0.466 | 0.449 | 1.03 | 1.04 | 1.07 | 0.957 | 1.02 | 0.19 | 0.163 | 0.186 | 0.198 | 0.161
HOP-62 | 0.45 | 0.483 | 0.396 | 0.335 | 0.52 | 0.38 | 0.414 | 0.343 | 0.44 | 0.577 | 1.04 | 0.97 | 1.16 | 0.995 | 1.13 | 0.531 | 0.505 | 0.599 | 0.527 | 0.511
LC-2-ad | 0.514 | 0.503 | 0.51 | 0.375 | 0.432 | 0.425 | 0.479 | 0.396 | 0.425 | 0.53 | 0.415 | 0.547 | 0.609 | 0.536 | 0.509 | 0.807 | 0.838 | 1.01 | 0.831 | 0.84
LCLC-97TM1 |  | 0.293 | 0.204 |  | 0.225 | 0.251 | 0.271 | 0.276 | 0.415 | 0.393 | 0.398 | 0.487 |  | 0.479 | 0.636 | 0.183 | 0.298 | 0.186 | 0.28 | 0.309
LK-2 | 0.686 | 0.644 | 0.687 |  | 0.782 | 0.176 | 0.161 | 0.198 | 0.162 | 0.174 | 0.755 | 0.903 | 0.994 | 0.904 | 0.904 | 0.281 | 0.42 | 0.289 | 0.508 | 0.48
LOU-NH91 | 0.471 | 0.537 | 0.516 | 0.491 | 0.523 | 0.682 | 0.54 | 0.746 | 0.694 | 0.827 | 0.639 | 0.728 | 0.625 | 0.674 | 0.722 | 0.423 | 0.77 | 0.791 | 0.806 | 0.799
LU99A | 0.39 | 0.445 | 0.387 |  | 0.453 | 0.27 | 0.266 | 0.264 | 0.369 | 0.419 | 0.766 | 0.93 | 0.697 | 0.755 | 0.821 | 0.377 | 0.375 | 0.394 | 0.344 | 0.35
LXF-289 | 0.591 | 0.625 | 0.591 | 0.529 | 0.6 | 0.253 | 0.175 | 0.219 | 0.253 | 0.317 | 0.955 | 0.914 | 0.979 | 1 | 0.961 | 1.16 | 1.22 | 1.09 | 1.19 | 1.2
NCI-H23 | 0.537 | 0.413 | 0.445 | 0.351 | 0.413 | 0.421 | 0.431 | 0.442 | 0.44 | 0.8 | 0.779 | 0.869 | 1.08 | 0.813 | 0.778 | 0.282 | 0.245 | 0.208 | 0.201 | 0.212
NCI-H322M | 0.381 | 0.56 | 0.501 | 0.474 | 0.525 | 0.453 | 0.435 | 0.432 | 0.437 | 0.527 | 1.11 | 1.26 | 1.23 | 1.35 | 1.37 | 0.545 | 0.564 | 0.593 | 0.681 | 0.617
NCI-H441 | 0.203 | 0.249 | 0.217 |  | 0.19 | 0.746 | 0.585 | 0.658 | 0.789 | 0.796 | 0.504 | 0.752 | 0.637 | 0.59 | 0.598 | 1.33 | 1.29 | 1.1 | 1.41 | 1.29
NCI-H460 | 0.102 | 0.102 | 0.12 | 0.0866 | 0.0814 | 0.394 | 0.515 | 0.525 | 0.413 | 0.624 | 0.994 | 1.47 | 1.45 | 1.23 | 1.34 | 0.678 | 0.694 | 0.668 | 0.581 | 0.407
NCI-H647 | 0.376 | 0.364 | 0.353 | 0.269 | 0.285 | 0.383 | 0.354 | 0.264 | 0.566 | 0.516 | 1.14 | 1.36 | 1.15 | 1.03 | 1.09 | 0.346 | 0.539 | 0.498 | 0.511 | 0.31
NCI-H727 | 0.615 | 0.678 | 0.657 | 0.636 | 0.667 | 0.543 | 0.628 | 0.625 | 0.674 | 0.746 | 0.348 | 0.389 | 0.435 | 0.382 | 0.522 | 0.527 | 0.575 | 0.483 | 0.495 | 0.569
NCI-H838 | 0.192 | 0.189 | 0.203 | 0.188 | 0.183 | 0.305 | 0.263 | 0.265 | 0.323 | 0.323 | 1.15 | 1.28 | 1.36 | 1.13 | 1.36 | 0.942 | 0.975 | 1.02 | 0.998 | 0.917
NCI-H1355 | 0.376 | 0.283 | 0.301 | 0.249 | 0.257 | 0.679 | 0.587 | 0.544 | 0.54 | 0.617 | 0.947 | 0.943 | 1.08 | 0.941 | 0.976 | 0.742 | 0.742 | 0.78 | 0.834 | 0.576
NCI-H1395 |  | 0.617 | 0.62 |  | 0.603 | 0.739 | 0.883 | 0.725 | 0.682 | 0.764 | 1.11 | 1.35 | 1.05 | 1.23 | 1.19 |  | 0.404 | 0.425 | 0.406 | 0.366
NCI-H1437 | 0.325 | 0.326 | 0.218 | 0.217 | 0.172 | 0.403 | 0.465 | 0.406 | 0.459 | 0.511 | 1.09 | 1.16 | 1.23 | 1.13 | 1.15 | 1.09 | 1.12 | 1.13 | 1.15 | 1.09
NCI-H1651 | 0.534 | 0.513 | 0.513 | 0.569 | 0.514 | 0.853 | 0.701 | 0.73 | 0.876 | 0.877 | 0.966 | 1.16 | 1.35 | 1.14 | 1.24 | 0.506 | 0.504 | 0.491 | 0.536 | 0.455
NCI-H1666 | 0.642 | 0.68 | 0.591 | 0.612 | 0.646 | 0.684 | 0.638 | 0.643 | 0.7 | 0.706 | 0.864 | 0.942 | 1.01 | 0.866 | 1.03 | 0.95 | 0.91 | 0.867 | 0.768 | 0.704
NCI-H1734 | 0.38 | 0.362 | 0.33 | 0.313 | 0.355 | 0.278 | 0.268 | 0.274 | 0.241 | 0.25 | 0.872 | 0.986 | 0.94 | 0.886 | 0.875 | 0.516 | 0.611 | 0.613 | 0.518 | 0.441
NCI-H1755 | 0.433 | 0.437 | 0.441 | 0.424 | 0.443 | 0.608 | 0.541 | 0.605 | 0.632 | 0.617 | 1.05 | 1.04 | 1.03 | 1.11 | 1.08 | 0.47 | 0.704 | 0.439 | 0.434 | 0.469
NCI-H1793 | 0.278 | 0.3 | 0.319 | 0.348 | 0.206 | 0.311 | 0.311 | 0.46 | 0.346 | 0.351 | 0.438 | 0.44 | 0.425 | 0.545 | 0.427 | 0.617 | 0.498 | 0.407 | 0.19 | 0.23
NCI-H1915 | 0.532 | 0.517 | 0.522 |  | 0.452 | 0.458 | 0.491 | 0.443 | 0.464 | 0.655 | 0.805 | 0.81 | 0.817 | 0.788 | 0.788 | 0.671 | 0.695 | 0.701 | 0.726 | 0.652
NCI-H1944 | 0.326 | 0.303 | 0.277 | 0.233 | 0.284 | 0.238 | 0.258 | 0.264 | 0.263 | 0.297 | 0.964 | 1.02 | 1.04 | 0.977 | 1.08 | 0.645 | 0.563 | 0.488 | 0.452 | 0.32
NCI-H1975 | 0.573 | 0.435 | 0.32 | 0.302 | 0.339 | 0.79 | 0.819 | 0.719 | 0.875 | 0.867 | 1.03 | 1.23 | 1.12 | 1.05 | 1.2 | 0.691 | 0.702 | 0.67 | 0.687 | 0.656
NCI-H1993 | 0.585 | 0.542 | 0.506 | 0.54 | 0.46 | 0.617 | 0.59 | 0.592 | 0.607 | 0.641 | 0.897 | 0.911 | 1.02 | 0.994 | 1.08 | 0.778 | 1.01 | 1.06 | 0.9 | 0.658
